# “Also recorded” adds a separate entry of the source. Where a SMILES comes first, the peptide text is derived from it. [ ]: non-standard residue; d: D form. Nle = CCCC[C@H](N)C(=O)O
# B1: exogenous human calpain 1 (protein)
# chain: SEEIITPVYCTGVSAQVQKQRARELGLGRHENAIKYLGQDYEQLRVRCLQSGTLFRDEAFPPVPQSLGYKDLGPNSSKTYGIKWKRPTELLSNPQFIVDGATRTDICQGALGDCWLLAAIASLTLNDTLLHRVVPHGQSFQNGYAGIFHFQLWQFGEWVDVVVDDLLPIKDGKLVFVHSAEGNEFWSALLEKAYAKVNGSYEALSGGSTSEGFEDFTGGVTEWYELRKAPSDLYQIILKALERGSLLGCSIDISSVLDMEAITFKKLVKGHAYSVTGAKQVNYRGQVVSLIRMRNPWGEVEWTGAWSDSSSEWNNVDPYERDQLRVKMEDGEFWMSFRDFMREFTRLEICNLTPDALKSRTIRKWNTTLYEGTWRRGSTAGGCRNYPATFWVNPQFKIRLDETDDPDDYGDRESGCSFVLALMQKHRRRERRFGRDMETIGFAVYEVPPELVGQPAVHLKRDFFLANASRARSEQFINLREVSTRFRLPPGEYVVVPSTFEPNKEGDFVLRFFSEKSAGTVELDDQIQANLPDEQVLSEEEIDENFKALFRQLAGEDMEISVKELRTILNRIISKHKDLRTKGFSLESCRSMVNLMDRDGNGKLGLVEFNILWNRIRNYLSIFRKFDLDKSGSMSAYEMRMAIESAGFKLNKKLYELIITRYSEPDLAVDFDNFVCCLVRLETMFRFFKTLDTDLDGVVTFDLFKWLQLTMFA
# Legend:
# [1] = system: NF-κB activation, IL-8 production; experiment: NF-κB activation and IL-8 production in airway cells; type: cell-based; conditions: cells treated with BAPTA/AM to chelate intracellular Ca2+
# [2] = system: occludin cleavage by calpain (45 kDa occludin cleavage product); experiment: Occludin cleavage: immunoprecipitation and immunoblot in 1HAEo- cells; type: cell-based, human; conditions: for Generation of occludin cleavage product in presence of inhibitor: 6 μM BAPTA/AM, 20 μM ALLN, 20 μM GM6001, 25 μM Z-DEVD-FMK
# Protocol: (§1) 1HAEo-cells or SAECs were grown to confluence on 10 cm plates, stimulated with heat killed PAO1 (10^7 CFU) or P3C (15 μg/ml), and whole cell lysates made using 60 mM n-octyl-β-D-glucopyranoside (OGP) in TBS (0.1 M Tris-HCl and 0.15 M NaCl, pH 7.8) containing Complete Mini protease inhibitor tablets (Roche), 1 mM sodium orthovanadate and 100 mM sodium fluoride. Monoclonal anti-E-cadherin (BD Pharmingen), polyclonal anti-pan calpain (Santa Cruz Biotechnologies) or monoclonal anti-occludin (Invitrogen/Zymed) antibodies were used for immunoprecipitations followed by the addition of Protein G Agarose beads (Invitrogen) (Chun and Prince, 2006). Immunodetection was performed using monoclonal anti-E-cadherin, polyclonal anti-occludin, anti-pan calpain, anti-calpain 1 and anti-calpain 2 antibodies (Santa Cruz Biotechnology).
# 1HAEo-cells were transiently transfected with scrambled (control) or calpain 1 and 2 siRNA Smart pool oligos (Dharmacon) (FIGS. 11 and 12). Transfection was carried out using an Amaxa Nucleofector following manufacturer's instructions. Briefly, 10^6 1HAEo-cells were electroporated in 100 μl Buffer L with 1.5 μg of scrambled or siRNA oligo and transferred into pre-warmed 6 well tissue culture dishes. Cells were incubated at 37° C., 5% CO2 for 48 hours before performing experiments.
# [3] = system: SARS-associated coronavirus; conditions: one isolate of the coronavirus; cited from earlier work
# [4] = system: E-cadherin cleavage by calpain (100 kDa E-cadherin cleavage product); experiment: E-cadherin cleavage: immunoblot in 1HAEo- cells; type: cell-based, human; conditions: airway cells, 4 hr stimulation
# Protocol: as §1
# [5] = system: epithelial cell junctions of polarized 16HBE cells; experiment: Biotin labeling and confocal microscopy of polarized 16HBE monolayers; type: cell-based, human; conditions: 4 h incubation
# Protocol: (§2) 16HBE cells were grown on 3 μm pore size Transwell-Clear filters (Corning-Costar) with an air-liquid interface to form polarized monolayers. For confocal imaging, cells were fixed with 4% paraformaldehyde, blocked with 5% normal donkey serum and incubated at 4° C. overnight with the polyclonal pan-calpain (Santa Cruz Biotechnology), monoclonal occludin (Invitrogen/Zymed) and/or monoclonal E-cadherin (BD Pharmingen) antibodies. Alexa Fluor 594 conjugated and Alexa Fluor 488 conjugated secondary antibodies (Invitrogen/Molecular Probes) were added at room temperature for 1 h. After washing, filters were removed from Transwells using a scalpel, mounted with Vectashield with DAPI (Vector Laboratories) onto glass slides and imaged using a Zeiss LSM 510 Meta scanning confocal microscope. For biotin labeling experiments 1 mg/ml EZ-Link Sulfo-NHS-LC-Biotin was added apically for 30 min at 4° C. before fixing the cells. Alexa Fluor 555 conjugated streptavidin (Molecular Probes) was added for detection of biotin.
# [6] = system: occludin, E-cadherin and calpain localization in 16HBE cells; experiment: Confocal imaging of junctional proteins and calpain in polarized 16HBE cells; type: cell-based, human; conditions: for Co-localization of calpain and E-cadherin: 1 hr stimulation; for Distribution of occludin and E-cadherin at cell junctions: 6 hr exposure
# Protocol: as §2
# [7] = system: calpain; experiment: Calpain assay with cell permeable fluorogenic calpain substrate (Boc-LM-CMAC); type: cell-based, human; conditions: 1HAEo- cells and SAEC
# Protocol: Confluent monolayers of 1HAEo-cells or SAECs were loaded with 20 μM t-BOC-L-leucine-L-methionine amide (Boc-LM-CMAC), a calpain specific membrane permeable fluorogenic substrate. Cells were stimulated with heat killed PAO1 (10^7 CFU) or P3C (15 μg/ml) and fluorescence was quantified at ex 360 nm and em 465 nm with a Spectrafluor Plus fluorimeter (Tecan).
# [8] = system: polarized 16HBE cells; experiment: Bacterial transmigration assay
# Protocol: Polarized 16HBE cells were pretreated with media alone, heat killed PAO1 (10^7 CFU), P3C (15 μg/ml), or thapsigargin (0.1 μM) for 4 h. Live PAO1 (2×10^7 CFU) were added apically for 1 h and media from the basal compartment collected and plated on LB agar plates. Bacterial transmigration across monolayers pretreated with 0.02% EGTA was used as a positive control.
# [9] = system: calpain 2 mRNA; experiment: Real time PCR of calpains and calpastatin in 1HAEo- cells
# [10] = system: polarized 16HBE cells; experiment: Transepithelial resistance and dextran permeability assays; type: cell-based, human
# Protocol: Polarized 16HBE cells grown in 12 mm Transwell-Clear filters (Corning-Costar) were stimulated apically with 10^7 CFU of heat killed PAO1. Transepithelial resistance readings were taken using a Millipore resistance reader which applies a 20 μA square wave alternating current across the monolayers at 12.5 Hz. The resistance of Transwell inserts without cells was used as a baseline control. After 5 h of stimulation, Alexa Fluor 488 labeled dextran (10,000 MW) was added apically for 1 h and fluorescence in the basal compartment monitored at ex 485, em 535 with a SpectraFluor Plus fluorimeter (Tecan). As a positive control, cells were treated apically and basolaterally for 1 h with 0.02% EGTA, an extracellular Ca^2+ chelator which increases paracellular permeability by disrupting cadherin mediated cell-cell adhesion.
# [11] = target: T1, occludin, Q16625
# T1 chain: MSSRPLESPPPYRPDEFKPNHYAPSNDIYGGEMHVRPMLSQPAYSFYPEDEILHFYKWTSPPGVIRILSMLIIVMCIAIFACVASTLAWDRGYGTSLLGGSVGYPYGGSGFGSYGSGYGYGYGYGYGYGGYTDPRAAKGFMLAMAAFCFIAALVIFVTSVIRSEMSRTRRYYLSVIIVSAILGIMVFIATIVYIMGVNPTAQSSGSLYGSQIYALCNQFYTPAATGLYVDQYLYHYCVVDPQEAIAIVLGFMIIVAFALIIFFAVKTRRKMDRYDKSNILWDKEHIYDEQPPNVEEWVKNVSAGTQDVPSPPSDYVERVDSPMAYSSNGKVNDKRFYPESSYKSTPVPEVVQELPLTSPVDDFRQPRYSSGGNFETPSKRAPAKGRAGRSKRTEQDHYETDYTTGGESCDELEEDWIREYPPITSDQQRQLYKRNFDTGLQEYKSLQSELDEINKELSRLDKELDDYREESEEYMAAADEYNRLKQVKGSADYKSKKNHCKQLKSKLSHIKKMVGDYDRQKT
# [12] = target: T2, E-cadherin, P12830
# T2 chain: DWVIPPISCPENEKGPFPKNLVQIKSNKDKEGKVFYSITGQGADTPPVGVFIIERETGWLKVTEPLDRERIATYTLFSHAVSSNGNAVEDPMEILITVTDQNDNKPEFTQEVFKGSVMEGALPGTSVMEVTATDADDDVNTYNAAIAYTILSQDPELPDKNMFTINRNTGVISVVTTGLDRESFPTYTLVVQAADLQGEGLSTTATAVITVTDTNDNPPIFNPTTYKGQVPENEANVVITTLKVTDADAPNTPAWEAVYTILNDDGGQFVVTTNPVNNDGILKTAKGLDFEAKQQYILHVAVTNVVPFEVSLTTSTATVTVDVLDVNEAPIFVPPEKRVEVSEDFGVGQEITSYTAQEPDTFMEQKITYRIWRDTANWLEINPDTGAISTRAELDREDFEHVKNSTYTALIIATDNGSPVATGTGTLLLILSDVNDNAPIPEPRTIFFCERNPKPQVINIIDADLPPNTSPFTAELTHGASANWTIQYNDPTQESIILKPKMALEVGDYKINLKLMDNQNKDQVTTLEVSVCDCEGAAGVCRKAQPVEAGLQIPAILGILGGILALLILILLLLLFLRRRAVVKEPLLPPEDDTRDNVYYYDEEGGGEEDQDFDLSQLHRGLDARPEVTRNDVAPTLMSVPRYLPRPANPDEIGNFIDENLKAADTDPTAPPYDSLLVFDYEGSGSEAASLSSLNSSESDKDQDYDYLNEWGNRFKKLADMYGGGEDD
molecule,measurement,setting,value
CC(=O)OCOC(=O)CN(CC(=O)OCOC(C)=O)c1ccccc1OCCOc1ccccc1N(CC(=O)OCOC(C)=O)CC(=O)OCOC(C)=O [BAPTA/AM],"Distal proinflammatory signaling (NF-κB activation, IL-8 production)",[1],unable to activate distal proinflammatory signaling
same,Generation of occludin cleavage product in presence of inhibitor,[2],substantially decreased
NC(=O)c1ncn([C@@H]2O[C@H](CO)[C@@H](O)[C@H]2O)n1 [Ribavirin],Virus growth or cell-to-cell spread,[3],does not inhibit
C/C=C(/C)C(=O)O[C@H]1C(C)=C2[C@H]([C@@H]1OC(=O)CCCCCCC)[C@@](C)(OC(C)=O)C[C@H](OC(=O)CCC)[C@@]1(O)[C@H]2OC(=O)[C@@]1(C)O [thapsigargin],100 kDa E-cadherin cleavage product after stimulation,[4],generation of a 100 kDa E-cadherin cleavage product
same,Penetration of biotin between cells of polarized monolayer,[5],resulted in the penetration of biotin; also recorded: increase in accessibility of the junctions to biotin
same,Co-localization of calpain and E-cadherin,[6],increased; also recorded: induced mobilization and co-localization of calpain with E-cadherin
CNC(=O)[C@H](Cc1c[nH]c2ccccc12)NC(=O)[C@@H](CC(=O)NO)CC(C)C [GM6001],Generation of occludin cleavage product in presence of inhibitor,[2],neither the general matrix metalloproteinase inhibitor GM6001 nor the caspase inhibitor Z-DEVD-FMK blocked
COC(=O)CC[C@H](NC(=O)[C@H](CC(=O)OC)NC(=O)OCc1ccccc1)C(=O)N[C@H](C(=O)N[C@@H](CC(=O)OC)C(=O)CF)C(C)C [Z-DEVD-FMK],Generation of occludin cleavage product in presence of inhibitor,[2],neither the general matrix metalloproteinase inhibitor GM6001 nor the caspase inhibitor Z-DEVD-FMK blocked
Pam3Cys-Ser-Lys4 [P3C],100 kDa E-cadherin cleavage product after stimulation,[4],generation of a 100 kDa E-cadherin cleavage product
same,Penetration of biotin between cells of polarized monolayer,[5],resulted in the penetration of biotin; also recorded: increase in accessibility of the junctions to biotin
same,Calpain activity after exposure to the stimulus,[7],significantly increased; also recorded: sufficient to activate calpain
same,Calpain activity after exposure to the stimulus,[7]; listed as Pam3Cys,activates calpain 2
same,Co-localization of calpain and E-cadherin,[6],increased; also recorded: co-localizing with E-cadherin
same,Co-localization of calpain and occludin,[6]; 1 h stimulation,Increased co-localization; also recorded: co-localized with membrane-associated occludin; also recorded: Increased colocalization
same,Distribution of occludin and E-cadherin at cell junctions,[6],dramatic loss; also recorded: altered
same,Distribution of occludin and E-cadherin at cell junctions,[6]; listed as PC3,altered
same,Bacterial invasion across the monolayer,[8],no changes
same,Transcription of calpain 2,[9],increased
same,45 kDa occludin cleavage product after stimulation,"[2]; 1HAEo- and SAEC, 1 hour post stimulation",readily identified
same,Transepithelial resistance,[10],no changes
"CCCC[C@@H](C=O)NC(=O)[C@H](CC(C)C)NC(=O)[C@H](CC(C)C)NC(C)=O [ALLN, N-acetyl-leucyl-leucyl-norleucinal] (Ac-Leu-Leu-[Nle]-aldehyde)",Generation of occludin cleavage product in presence of inhibitor,[2],blocked generation of the occludin cleavage product
B1,"in vitro degradation (cleavage) of the immunoprecipitated protein by Ca2+-activated exogenous calpain, immunoblot",[11],"exogenous calpain activated by the addition of Ca2+ degraded occludin and E-cadherin, but not claudin-1 or JAM-1"
same,"in vitro degradation (cleavage) of the immunoprecipitated protein by Ca2+-activated exogenous calpain, immunoblot",[12],"exogenous calpain activated by the addition of Ca2+ degraded occludin and E-cadherin, but not claudin-1 or JAM-1"

# From patent publication US20110117106A1, “USES OF CALPAIN INHIBITORS TO INHIBIT INFLAMMATION” (priority 2008, published 2011)
